A short description of test [1]: Binding affinity to Burkholderia pseudomallei Mip measured after 1 hr by fluorescence polarization assay. The conditions noted are these: read-out: Ki. (In fluorescence polarisation assays a small probe gives low polarisation when free and higher when bound to something large.)
For test [2], the system named is Burkholderia pseudomallei. The experiment in a line: Inhibition of Burkholderia pseudomallei Mip PPIase activity assessed as remaining activity using Suc-ALPF-pNA substrate measured at 400 nM by protease coupled assay relative to control.
Test [3] deals with Neisseria meningitidis. The test can be described thus: Inhibition of Neisseria meningitidis Mip PPIase activity assessed as remaining activity using Suc-ALPF-pNA substrate measured at 400 nM by protease coupled assay relative to control.
For test [4], the system named is Neisseria meningitidis. The test can be described thus: Inhibition of Neisseria meningitidis Mip NEIS0004 assessed as remaining activity using Suc-ALPF-pNA substrate measured at 400 nM by protease coupled assay relative to control.
Test [5] concerns Burkholderia pseudomallei. The test can be described thus: Antimicrobial activity against Burkholderia pseudomallei K96243 infected in mouse RAW264.7 cells assessed as reduction in bacteria-induced cytotoxicity at 50 uM after 24 hrs by lactate dehydrogenase release assay relative to control. The class given is functional. Details: scale not given: the % may be the effect or the level left.

Test [6] deals with Neisseria meningitidis. The test can be described thus: Antimicrobial activity against Neisseria meningitidis infected in mouse RAW264.7 cells assessed as reduction in bacteria-induced cytotoxicity at 50 uM after 24 hrs by lactate dehydrogenase release assay relative to control. The class given is functional. Details: scale not given: the % may be the effect or the level left.

The test system of a further test is Neisseria gonorrhoeae. The experiment in a line: Antimicrobial activity against Neisseria gonorrhoeae infected in mouse RAW264.7 cells assessed as reduction in bacteria-induced cytotoxicity at 50 uM after 24 hrs by lactate dehydrogenase release assay relative to control. The class given is functional. Details: scale not given: the % may be the effect or the level left.

Turning to `O=C(NCc1cccnc1)C(CCc1cccnc1)OC(=O)[C@@H]1CCCCN1S(=O)(=O)c1ccccc1` (mixture of isomers), the Ki in test [1] was 4160 nM. In addition, the Activity in test [2] is 32.6%; in the test with Neisseria meningitidis [3] it was 82%; in the test with Neisseria meningitidis [4] it was 32.8%; in test [5], 35.6%; in the test with Neisseria meningitidis [6] it was 84.4%; with Neisseria gonorrhoeae, 52%.

`O=C(NCc1cccnc1)[C@H](CCc1ccccc1)COC(=O)[C@@H]1CCCCN1S(=O)(=O)Cc1ccccc1`: the Ki in test [1] was found to be 3380 nM. Further, the Activity in test [2] worked out at 101%; in the test on Neisseria meningitidis [3], 83.5%; in the test with Neisseria meningitidis [4] it was 70%; in test [5], 97.6%; in the test with Neisseria meningitidis [6], 67.7%; in the test on Neisseria gonorrhoeae it was 53.6%.

For the molecule `CC(C)C[C@H](NC(=O)[C@@H]1CCCCN1S(=O)(=O)Cc1ccc(F)cc1)C(=O)NCc1cccnc1`, the Ki in test [1] is 45.6 nM. For the same molecule, the Activity in test [2] worked out at 5.8%; in the test with Neisseria meningitidis [3], 23.6%; in the test on Neisseria meningitidis [4], 4.2%; in test [5] it was 46.8%; with Neisseria meningitidis [6], 56.2%; in the test with Neisseria gonorrhoeae, 61.7%.

Regarding `O=C(NCc1cccnc1)[C@@H](CCc1ccccc1)COC(=O)[C@@H]1CCCCN1S(=O)(=O)Cc1ccccc1`, the Ki in test [1] was 15.3 nM. Moreover, the Activity was found to be 14.8% in test [2]; 54% in the test on Neisseria meningitidis [3]; 11.1% in the test on Neisseria meningitidis [4]; 70.6% in test [5]; 16% in the test on Neisseria meningitidis [6]; 19.8% in the test on Neisseria gonorrhoeae.

Regarding `O=C(NCc1cccnc1)[C@H](CCc1ccccc1)NC(=O)[C@@H]1CCCCN1S(=O)(=O)Cc1ccccc1`, the Ki in test [1] came out at 10.5 nM. Also, the Activity came to 17.6% in test [2]; 44.8% with Neisseria meningitidis [3]; 12.9% in the test on Neisseria meningitidis [4]; 75.4% in test [5]; 34.1% in the test with Neisseria meningitidis [6]; 71.5% in the test with Neisseria gonorrhoeae.

For the molecule `O=C(NCc1cccnc1)[C@@H](Cc1ccccc1)OC(=O)[C@@H]1CCCCN1S(=O)(=O)c1ccccc1`, the Ki in test [1] came out at 41100 nM. In addition, the Activity in test [2] was 151%; in the test with Neisseria meningitidis [3], 51.1%; with Neisseria meningitidis [4], 106%; in test [5] it was 65.9%; in the test on Neisseria meningitidis [6], 26%; with Neisseria gonorrhoeae, 73.2%.

The term Ki denotes the equilibrium dissociation constant of an inhibitor or competing ligand from its target.

The record behind these values is ChEMBL document CHEMBL5331130, “Analysis of Structure-Activity Relationships of Novel Inhibitors of the Macrophage Infectivity Potentiator (Mip) Proteins of Neisseria meningitidis, Neisseria gonorrhoeae, and Burkholderia pseudomallei” (J Med Chem, 2023).
